Data as given in BigSolDB 2.1.

O=C(O)[C@@H]1CSCN1
solubility (mole fraction)
Conditions | in 1,4-dioxane | in acetone | in acetonitrile | in dichloromethane | in ethanol | in ethyl acetate | in isopropanol | in methanol | in water
283.15 K | – | 0.00018 | 2.2e-05 | 1.5e-05 | 9e-05 | 2.3e-05 | 3.7e-05 | 5.5e-05 | 0.00296
288.15 K | 0.00035 | – | – | 5.1e-05 | – | – | – | – | –
293.15 K | 0.000384 | 0.000298 | 3e-05 | 0.000134 | 0.000125 | 7.2e-05 | 6.8e-05 | 7.4e-05 | 0.00383
298.15 K | – | – | – | 0.000208 | – | – | – | – | –
303.15 K | 0.000477 | 0.000537 | 4.8e-05 | 0.000292 | 0.00018 | 0.000158 | 9.8e-05 | 0.000112 | 0.00502
313.15 K | 0.000589 | 0.00135 | 6.8e-05 | – | 0.000254 | 0.000297 | 0.000127 | 0.000209 | 0.0062
323.15 K | 0.000708 | 0.00343 | 9.1e-05 | – | 0.000348 | 0.000471 | 0.00019 | 0.000315 | 0.00773
